Measurements published in patent publication US20250295109A1, “UNIVERSAL SYNERGIST FOR INSECT ATTRACTANTS” (North Carolina State University, priority 2022, published 2025).

Legend:
Musca domestica = assay: dual choice trapping cage assay with commercial fly trap attractant (STARBAR); assay type: in vivo; settings: 24 hours
From the text: FIG. 8A is a schematic drawing showing a design for a dual choice free flight cage trapping assay used to determine the effect of nonanal on the trapping of house flies (Musca domestica) when used in combination with a commercial house fly lure. At the right of the drawing is shown a schematic of a 30 centimeter (cm) by 30 cm cage containing two commercial house fly traps (Trap 1 and Trap 2), each including a plastic cup fitted with a transparent lid that has an opening for the flies. An enlarged view of an individual trap is shown to the left side of the drawing. Inside each trap, at the bottom, is placed a commercial fly attractant as a lure. In addition, each trap is fitted with a 1.5 mL vial containing either 50 microliters (μL) dimethyl sulfoxide (DMSO) or 50 μL of a solution of nonanal in DMSO. For each experiment, 20 house flies are used.
The attraction of fed Musca domestica males and females to a commercial lure and a laboratory-built trap to which various amounts of nonanal were added is shown in […]. […] After 24 hours, house flies in both traps were counted. […]
The other trap in the dual choice trapping assay contained 50 mL of the commercial fly trap attractant lure plus a 50 μl of DMSO only. […] After 24 hours, flies in both traps were counted.

[1] = system: male corn earworm (CEW, Helicoverpa zea); assay: field trapping of male CEW in Hartstack traps, nonanal dose study; assay type: in vivo
Description: FIG. 10C is a graph showing the effectiveness of different doses of nonanal in field trapping of male corn earworm (CEW, Helicoverpa zea) using a commercial sex pheromone lure with different doses of nonanal. Effectiveness is measured as the number of male CEW captured per trap per day. The data for the two bars on the left are from traps with no commercial pheromone dispenser, while the data for the six bars on the right are from traps with the commercial pheromone dispenser in combination with the dispenser containing either paraffin oil alone (0 percent (%) nonanal) or a paraffin oil solution comprising 0.5% to 8% nonanal (weight to weight relative to the amount of the main component of the commercial sex pheromone).
Some of the traps also contained, adjacent to the glass vials, a lure comprising a rubber septum formulated with the commercial CEW sex pheromone. Assuming that the commercial pheromone lure contained about 2 mg of the major component (i.e., (Z)-11-hexadecenal), the solutions in the glass vials were prepared to contain various amounts (0%, 0.5%, 1%, 2%, 4%, or 8%) of nonanal on a weight to weight basis with the (Z)-11-hexadecenal.

Drosophila melanogaster [2] = assay: dual choice trapping cage assay with commercial fruit fly traps and lure (TERRO); assay type: in vivo; settings: 24 hours
Description: FIG. 7A is a schematic drawing showing a design for a dual choice free flight cage trapping assay used to determine the effect of nonanal on the trapping of fruit flies (Drosophila melanogaster) when used in combination with a commercial fruit fly lure. Inside a 30 centimeter (cm) by 30 cm cage are placed two commercial fruit fly traps. Inside each commercial fruit fly trap is placed 1 milliliter (mL) of a commercial fruit fly lure. In addition, in one trap (Trap 1) is placed a 1.5 mL vial containing 50 microliters (μL) dimethyl sulfoxide (DMSO), while in the other trap (Trap 2) is placed a 1.5 mL vial containing 50 μL of a solution of nonanal in DMSO. For each experiment 40 to 120 fruit flies are used. The attraction of starved Drosphila melanogaster males and females to a commercial lure and trap to which various amounts of nonanal were added is shown in FIG. 7B. In all experiments, 40 to 120 3-4 day old, 24 hours starved flies (males and females) were given a choice between two commercial fruit fly traps (sold under the tradename TERRO® traps; Model #BT2502; Senoret Chemicals Co., Inc., Lititz, Pennsylvania, United States of America). […] After 24 hours, flies in both traps were counted. […] After 24 hours, flies in both traps were counted.

male CEW antenna = assay: GC-EAD of female sex pheromone gland extract on male CEW antenna; set-up: species or system Helicoverpa zea; settings: compound present in CEW female sex pheromone gland extract
Description: Based on the finding that nonanal attracts male CEW in laboratory and field behavioral studies, and as described hereinbelow, a study of the female sex pheromone gland extract of Helicoverpa zea was performed using a gas chromatography-electroantennograom detector (GC-EAD), a device that couples a GC to an insect antenna, the olefactory organ of insects that serves as a biological detector. In this device, the GC separates chemicals in a mixture and presents them to the antenna, and its electrophysiological responses reveal which chemicals it senses. […]
The sex pheromone glands of multiple CEW females were dissected and the contents extracted with hexane. […] In parallel to the GC, the electrophysiological response of the antenna is recorded to identify the active compounds. […] Gland extracts were also analyzed using gas chromatography-mass spectrometry (GC-MS) (6890 GC and 5975 MS, Agilent Technologies, Palo Alto, California, United States of America) The GC-MS was operated in pulsed splitless mode (15 psi for 0.5 min, then 6 psi) and equipped with a DB-WAXetr column (30 m×0.25 mm, df=0.25 μm, Agilent Technologies, Palo Alto, California, United States of America), and helium was used as the carrier gas at an average velocity of 34 cm/s. […]

Drosophila melanogaster [3] = assay: dual choice free flight cage trapping assay with glass vial traps (water or balsamic vinegar); assay type: in vivo; settings: 24 hours
From the text: FIG. 4 is a schematic drawing showing a design for a dual choice free flight cage trapping assay used herein to determine the effect of nonanal on trapping fruit flies (Drosophila melanogaster). A 13 centimeter (cm) by 19 cm by 9.5 cm cage with a mesh opening on the top is equipped with two glass 5.5 cm by 2.5 cm glass vial traps, each equipped with a lid fitted with a truncated pipette tip. At the bottom of each glass vial trap is either water or a fermentation attractant (i.e., balsamic vinegar). Inside each glass vial trap is another smaller glass vial containing either a solution of nonanal in dimethyl sulfoxide (DMSO) or a DMSO without nonanal. The attraction of starved Drosphila melanogaster males and females to balsamic vinegar (Bellino, Cento Fine Foods, Deptford, New Jersey, United States of America) with and without 1 μg nonanal was studied in a dual choice trapping assay. Nonanal was placed in a glass vial, separately from the balsamic vinegar, but adjacent to it. In all experiments, 20 3-4 day old, 24 hours starved flies (males and females) were given a choice between two traps. […] After 24 hours, flies in both traps were counted. Various amounts of nonanal were dissolved in DMSO, and then 10 μl of nonanal DMSO solution were placed in a separate glass vial (12×32 mm, Thermo Fisher Scientific. Waltham, Massachusetts, United States of America) adjacent to 0.4 ml of water in one trap. The other trap in the dual choice trapping assay contained 0.4 ml of water plus a separate vial containing 10 μl of DMSO. Twenty 3-4 day old, 24 hours starved flies (males and females) were given a choice between the two traps. After 24 hours, flies in both traps were counted. […] N=10. […] The attraction of starved Drosphila melanogaster males and females to balsamic vinegar to which various amounts of nonanal were added is shown in FIG. 6. Various amounts of nonanal were dissolved in DMSO, and then 10 μl of nonanal DMSO solution were placed in a separate glass vial adjacent to 0.4 ml of balsamic vinegar in one trap. […] After 24 hours, flies in both traps were counted. […]

[4] = system: male corn earworm (CEW, Helicoverpa zea); assay: field trapping of male CEW in Hartstack traps, nonanal and/or 1-hexanol; assay type: in vivo; settings: for effectiveness in trapping male CEW, without commercial pheromone lure: 0.5% w/w level, without the commercial pheromone lure, sorghum or corn fields; for effectiveness of commercial lure in trapping male CEW when combined: 0.5% w/w with major component of commercial pheromone lure, used in combination with the commercial lure
From the text: FIG. 11 is a graph showing the results of a field trapping study of male com earworm (CEW, Helicoverpa zea) using traps containing a dispenser containing a solution of 0.5% nonanal and/or 0.5% 1-hexanol alone or also containing a dispenser for a commercial CEW sex pheromone lure. Effectiveness is reported as number of male CEW capture per day per trap.
To determine the effects of 1-hexanol and combinations of 1-hexanol and nonanal, Hartstack traps with or without the commercial CEW sex pheromone lure and with or without one or both of nonanal and 1-hexanol were placed in sorghum or corn fields. Nonanal and 1-hexanol, if present, were present at 0.5% on a weight to weight basis with the major component of the commercial pheromone lure.

Structure (SMILES): CCCCCCCCC=O [nonanal]
- house flies trapped, nonanal trap versus trap without nonanal (Musca domestica; increasing amount of nonanal in 50 μl DMSO with 50 mL commercial fly trap attractant lure, other trap lure plus DMSO, fed flies): more house flies are trapped
- attraction of house flies to commercial fly trap attractant lure at too much nonanal (Musca domestica; too much nonanal in 50 μl DMSO with 50 mL commercial fly trap attractant lure): interferes with attraction of flies to the commercial fly trap attractant lure
- trap effectiveness with commercial CEW sex pheromone ([1]; e.g. 0.5% to 4% nonanal (w/w to (Z)-11-hexadecenal) added to trap with commercial CEW sex pheromone): increased the trap effectiveness
- effectiveness in capturing male CEW, no commercial pheromone ([1]; traps containing only nonanal in paraffin oil, no commercial CEW sex pheromone lure): not effective in capturing male CEW
- flies trapped, nonanal trap versus trap without nonanal (Drosophila melanogaster [2]; increasing amount of nonanal in 50 μl DMSO with 1 mL commercial fruit fly lure, other trap lure plus DMSO): more flies are trapped
- attraction of flies to commercial fruit fly lure at too much nonanal (Drosophila melanogaster [2]; too much nonanal in 50 μl DMSO with 1 mL commercial fruit fly lure): interferes with attraction of flies to the commercial fruit fly lure
- EAD response of the antenna (male CEW antenna): elicit an EAD response in the antenna
- attraction of flies to balsamic vinegar at highest amount of nonanal (Drosophila melanogaster [3]; highest amount of nonanal (1000 μg) in DMSO adjacent to balsamic vinegar): interferes with attraction of flies to balsamic vinegar
- flies trapped, nonanal trap versus trap without nonanal (Drosophila melanogaster [3]; increasing amount of nonanal (e.g., 1 μg) in DMSO in vial adjacent to 0.4 ml balsamic vinegar, other trap balsamic vinegar and DMSO): more flies are trapped
- flies trapped, nonanal trap versus trap without nonanal (Drosophila melanogaster [3]; nonanal at various concentrations in DMSO (10 μl) in vial adjacent to 0.4 ml water, other trap water and DMSO only, starved males and females): does not trap any more flies than traps containing water and DMSO only
- effectiveness in trapping male CEW, without commercial pheromone lure [4]: not effective in trapping male CEW
- effectiveness of commercial lure in trapping male CEW when combined [4]: improved its effectiveness

Structure (SMILES): CCCCCCO [1-hexanol]
- EAD response of the antenna (male CEW antenna): elicit an EAD response in the antenna
- effectiveness in trapping male CEW, without commercial pheromone lure [4]: not effective in trapping male CEW
- effectiveness of commercial lure in trapping male CEW when combined [4]: improved its effectiveness
